Experiments:
African green monkey [1] = assay: Toxicity in African green monkey B6408 model infected with Yersinia pestis Colorado 92 assessed as serum creatinine level at 25 mg/kg, iv administered within 6 hrs post onset of sustained fever as 30 mins infusion for 10 days (reference value: 0.5 mg/dl); assay type: organism-based; settings: chlorocebus sabaeus, in vivo
Yersinia pestis [2] = assay: Antibacterial activity against Yersinia pestis Colorado 92 infected in African green monkey B6861 model assessed as bacterial burden in tracheobronchial lymph nodes at 6.25 mg/kg, iv administered within 6 hrs post onset of sustained fever as 30 mins infusion for 5 days (reference value: 7.7 10^9CFU/g); assay type: functional, CO92, Lymph node
African green monkey [3] = assay: Toxicity in African green monkey 8067 model infected with Yersinia pestis Colorado 92 assessed as blood urea nitrogen level at 25 mg/kg, iv administered within 6 hrs post onset of sustained fever as 30 mins infusion for 10 days (reference value: 13 mg/dl); assay type: organism-based; settings: chlorocebus sabaeus, in vivo
African green monkey [4] = assay: Toxicity in African green monkey 7929 model infected with Yersinia pestis Colorado 92 assessed as blood urea nitrogen level at 25 mg/kg, iv administered within 6 hrs post onset of sustained fever as 30 mins infusion for 10 days (reference value: 15 mg/dl); assay type: organism-based; settings: chlorocebus sabaeus, in vivo
Yersinia pestis [5] = assay: Antibacterial activity against Yersinia pestis Colorado 92 infected in African green monkey B6988 model assessed as bacterial burden in spleen at 6.25 mg/kg, iv administered within 6 hrs post onset of sustained fever as 30 mins infusion for 5 days (reference value: 1.6 10^9CFU/g); assay type: functional, CO92
[6] = Clearance in African green monkey blood at 35 mg/kg administered as iv infusion twice daily for 7 consecutive days measured on day 7 by LC-MS/MS analysis; assay type: ADME, organism-based; settings: chlorocebus aethiops
[7] = Volume of distribution at steady state in African green monkey blood at 25 mg/kg administered as iv infusion twice daily for 7 consecutive days measured on day 7 by LC-MS/MS analysis; assay type: ADME, organism-based; settings: chlorocebus aethiops, read-out: Vdss
[8] = AUC (0 to 24 hrs) in African green monkey blood at 25 mg/kg administered as iv infusion twice daily for 7 consecutive days measured on day 7 by LC-MS/MS analysis; assay type: ADME, organism-based; parameters: time < 24 hr, dose 25 mg/kg, route intravenous; settings: chlorocebus aethiops
African green monkey [9] = assay: Toxicity in African green monkey 7643 model infected with Yersinia pestis Colorado 92 assessed as serum gamma glutamyl-transferase level at 25 mg/kg, iv administered within 6 hrs post onset of sustained fever as 30 mins infusion for 10 days (reference value: 44 IU/L); assay type: organism-based; settings: chlorocebus sabaeus, in vivo
[10] = Toxicity in African green monkey 8067 model infected with Yersinia pestis Colorado 92 assessed as total white blood cell count at 25 mg/kg, iv administered within 6 hrs post onset of sustained fever as 30 mins infusion for 10 days (reference value: 10 10^3/microL); assay type: organism-based; settings: chlorocebus aethiops, in vivo
Yersinia pestis [11] = assay: Antibacterial activity against Yersinia pestis Colorado 92 infected in African green monkey B6861 model assessed as bacterial burden in heart at 6.25 mg/kg, iv administered within 6 hrs post onset of sustained fever as 30 mins infusion for 5 days (reference value: 2.6 10^7CFU/g); assay type: functional, CO92
[12] = AUC (0 to 24 hrs) in African green monkey blood at 35 mg/kg administered as iv infusion twice daily for 7 consecutive days measured on day 7 by LC-MS/MS analysis; assay type: ADME, organism-based; parameters: time < 24 hr, dose 35 mg/kg, route intravenous; settings: chlorocebus aethiops
African green monkey [13] = assay: Toxicity in African green monkey B6291 model infected with Yersinia pestis Colorado 92 assessed as serum gamma glutamyl-transferase level at 25 mg/kg, iv administered within 6 hrs post onset of sustained fever as 30 mins infusion for 10 days (reference value: 77 IU/L); assay type: organism-based; settings: chlorocebus sabaeus, in vivo
[14] = Toxicity in African green monkey 7972 model infected with Yersinia pestis Colorado 92 assessed as total white blood cell count at 25 mg/kg, iv administered within 6 hrs post onset of sustained fever as 30 mins infusion for 10 days (reference value: 6.9 10^3/microL); assay type: organism-based; settings: chlorocebus aethiops, in vivo
Yersinia pestis [15] = assay: Antibacterial activity against Yersinia pestis Colorado 92 infected in African green monkey B6889 model assessed as bacterial burden in blood at 6.25 mg/kg, iv administered within 6 hrs post onset of sustained fever as 30 mins infusion for 5 days (reference value: 1.2 10^7CFU/ml); assay type: functional, CO92
Yersinia pestis [16] = assay: Antibacterial activity against Yersinia pestis Colorado 92 infected in African green monkey B6127 model assessed as bacterial burden in lung at 25 mg/kg, iv administered within 6 hrs post onset of sustained fever as 30 mins infusion for 10 days (reference value: 7.7 10^8CFU/g); assay type: functional, organism-based; settings: CO92
African green monkey [17] = assay: Toxicity in African green monkey B6291 model infected with Yersinia pestis Colorado 92 assessed as serum creatinine level at 25 mg/kg, iv administered within 6 hrs post onset of sustained fever as 30 mins infusion for 10 days (reference value: 0.6 mg/dl); assay type: organism-based; settings: chlorocebus sabaeus, in vivo
[18] = Elimination half life in African green monkey blood at 25 mg/kg administered as iv infusion twice daily for 7 consecutive days measured on day 1 by LC-MS/MS analysis; assay type: ADME, organism-based; settings: chlorocebus aethiops, read-out: beta t1/2 (converted)
[19] = Toxicity in African green monkey 7653 model infected with Yersinia pestis Colorado 92 assessed as total white blood cell count at 25 mg/kg, iv administered within 6 hrs post onset of sustained fever as 30 mins infusion for 10 days (reference value: 7.5 10^3/microL); assay type: organism-based; settings: chlorocebus aethiops, in vivo
Yersinia pestis [20] = assay: Antibacterial activity against Yersinia pestis Colorado 92 infected in African green monkey B6415 model assessed as bacterial burden in brain at 25 mg/kg, iv administered within 6 hrs post onset of sustained fever as 30 mins infusion for 5 days (reference value: 1.9 10^6CFU/g); assay type: functional, CO92
African green monkey [21] = assay: Toxicity in African green monkey 7337 model infected with Yersinia pestis Colorado 92 assessed as blood urea nitrogen level at 25 mg/kg, iv administered within 6 hrs post onset of sustained fever as 30 mins infusion for 10 days (reference value: 15 mg/dl); assay type: organism-based; settings: chlorocebus sabaeus, in vivo
Yersinia pestis [22] = assay: Antibacterial activity against Yersinia pestis Colorado 92 infected in African green monkey B6960 model assessed as bacterial burden in heart at 6.25 mg/kg, iv administered within 6 hrs post onset of sustained fever as 30 mins infusion for 5 days (reference value: 2.6 10^7CFU/g); assay type: functional, CO92
African green monkey [23] = assay: Toxicity in African green monkey 7972 model infected with Yersinia pestis Colorado 92 assessed as serum creatinine level at 25 mg/kg, iv administered within 6 hrs post onset of sustained fever as 30 mins infusion for 10 days (reference value: 0.8 mg/dl); assay type: organism-based; settings: chlorocebus sabaeus, in vivo
Yersinia pestis [24] = assay: Antibacterial activity against Yersinia pestis Colorado 92 infected in African green monkey B6106 model assessed as bacterial burden in tracheobronchial lymph nodes at 25 mg/kg, iv administered within 6 hrs post onset of sustained fever as 30 mins infusion for 5 days (reference value: 7.7 10^9CFU/g); assay type: functional, organism-based; settings: CO92, Lymph node
[25] = Cmax in African green monkey blood at 35 mg/kg administered as iv infusion twice daily for 7 consecutive days measured on day 1 by LC-MS/MS analysis; assay type: ADME, organism-based; parameters: dose 35 mg/kg, route intravenous; settings: chlorocebus aethiops
African green monkey [26] = assay: Toxicity in African green monkey B5994 model infected with Yersinia pestis Colorado 92 assessed as serum gamma glutamyl-transferase level at 25 mg/kg, iv administered within 6 hrs post onset of sustained fever as 30 mins infusion for 10 days (reference value: 35 IU/L); assay type: organism-based; settings: chlorocebus sabaeus, in vivo
African green monkey [27] = assay: Toxicity in African green monkey 7653 model infected with Yersinia pestis Colorado 92 assessed as serum lactate dehydrogenase level at 25 mg/kg, iv administered within 6 hrs post onset of sustained fever as 30 mins infusion for 10 days (reference value: 319 IU/L); assay type: organism-based; settings: chlorocebus sabaeus, in vivo

SMILES: CN[C@@H]1[C@@H](O)[C@@H](O[C@@H]2[C@@H](O)[C@H](O[C@H]3OC(CNCCO)=CC[C@H]3N)[C@@H](N)C[C@H]2NC(=O)[C@@H](O)CCN)OC[C@]1(C)O [PLAZOMICIN]
- Activity (African green monkey [1]): 0.4 mg/dL
- Activity (Yersinia pestis [2]): 1.2 ×10⁸ CFU/g
- Activity (African green monkey [3]): 21 mg/dL
- Activity (African green monkey [4]): 17 mg/dL
- Activity (Yersinia pestis [5]): 17 CFU/g
- clearance [6]: 1.67 mL/min/kg
- Vd [7]: 0.36 L/kg
- AUC at 24 h [8]: 208 µg·h/mL
- Activity (African green monkey [9]): 35 IU/L
- Activity [10]: 9.4 ×10³ /uL
- Activity (Yersinia pestis [11]): 16 CFU/g
- AUC at 24 h [12]: 319 µg·h/mL
- Activity (African green monkey [13]): 102 IU/L
- Activity [14]: 7.6 ×10³ /uL
- Activity (Yersinia pestis [15]): 93 CFU/ml
- Activity (Yersinia pestis [16]): Below limit of detection
- Activity (African green monkey [17]): 0.5 mg/dL
- half-life [18]: 1.8 h
- Activity [19]: 5.8 ×10³ /uL
- Activity (Yersinia pestis [20]): 39 CFU/g
- Activity (African green monkey [21]): 18 mg/dL
- Activity (Yersinia pestis [22]): 1.2 ×10⁶ CFU/g
- Activity (African green monkey [23]): 0.7 mg/dL
- Activity (Yersinia pestis [24]): Below limit of detection
- Cmax [25]: 176 µg/mL
- Activity (African green monkey [26]): 38 IU/L
- Activity (African green monkey [27]): 426 IU/L
